Data taken from patent US20230089867A1, “CYCLIC PENTAMER COMPOUNDS AS PROPROTEIN CONVERTASE SUBTILISIN/KEXIN TYPE 9 (PCSK9) INHIBITORS FOR THE TREATMENT OF METABOLIC DISORDER” (Novartis AG, priority 2018, published 2023).

Target: human PCSK9 (Homo sapiens, UniProt Q8NBP7)
Test: PCSK9 ligand binding TR-FRET assay (interference with binding of human PCSK9 to human LDLR)
Details: for Max % inhibition: PCSK9 FRET assay, efficacy (Amax), 100% = 1 uM unlabeled human PCSK9, 0% = DMSO; for IC50: TR-FRET, human PCSK9 Alexa Fluor 647 / human LDLR extracellular domain-Europium Kryptate, read-out: PCSK9 FRET Assay IC50
How it was run: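 Threefold compound dilutions were pre-incubated 30 min with PCSK9, after which 4 nM Europium Kryptate-tagged human LDLR ectodomain was added for a further 2 h.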

Chain of human PCSK9 (Q8NBP7 153-692): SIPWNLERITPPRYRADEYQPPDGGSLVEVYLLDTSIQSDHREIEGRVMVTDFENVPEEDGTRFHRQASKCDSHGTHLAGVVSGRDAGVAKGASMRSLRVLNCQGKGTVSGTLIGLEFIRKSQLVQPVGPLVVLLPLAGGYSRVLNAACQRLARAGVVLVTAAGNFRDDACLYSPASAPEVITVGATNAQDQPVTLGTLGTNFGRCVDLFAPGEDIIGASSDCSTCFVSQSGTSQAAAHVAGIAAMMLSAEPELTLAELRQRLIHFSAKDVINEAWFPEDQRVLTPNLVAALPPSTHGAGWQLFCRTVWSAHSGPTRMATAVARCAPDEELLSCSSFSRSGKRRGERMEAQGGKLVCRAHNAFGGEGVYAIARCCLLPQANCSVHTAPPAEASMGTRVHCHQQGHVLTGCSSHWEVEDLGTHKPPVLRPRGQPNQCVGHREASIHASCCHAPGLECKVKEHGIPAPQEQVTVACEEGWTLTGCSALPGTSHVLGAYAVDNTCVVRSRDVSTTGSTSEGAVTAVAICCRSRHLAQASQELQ
Chain of human PCSK9 (Q8NBP7 31-152 partner limits assumed): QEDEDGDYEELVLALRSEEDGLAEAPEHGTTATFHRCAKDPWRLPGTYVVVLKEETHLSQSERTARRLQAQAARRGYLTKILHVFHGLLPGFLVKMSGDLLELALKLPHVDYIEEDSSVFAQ

Compound | Max % inhibition [%] | IC50 [nM]
COC[C@@H]1NC(=O)[C@H](C)N(Cc2ccc(Cl)cc2Oc2ccc(-c3cnc(CN4CC5(COC5)C4)n3C)cc2)C(=O)C[C@@H](Cc2ccccc2)C(=O)N(C)[C@@H](C)CNC(=O)C[C@H](Cc2ccc(Cl)cc2)N(C)C1=O [Compound 189, (2S,5S,8S,13S,16R)-1-(2-(4-(2-(2-oxa-6-azaspiro[3.3]heptan-6-ylmethyl)-1-methyl-1H-imidazol-5-yl)phenoxy)-4-chlorobenzyl)-16-benzyl-8-(4-chlorobenzyl)-5-(methoxymethyl)-2,7,13,14-tetramethyl-1,4,7,11,14-pentaazacyclooctadecane-3,6,10,15,18-pentaone] | 95.01 | 1.4
COC[C@@H]1NC(=O)[C@H](C)N(Cc2ccc(Cl)cc2Oc2ccc(-c3cnc(CN4CCCC4)n3C)cc2)C(=O)C[C@@H](Cc2ccccc2)C(=O)N(C)[C@@H](CCN(C)C)CNC(=O)C[C@H](Cc2ccc(Cl)cc2)N(C)C1=O [Compound 190, (2S,5S,8S,13S,16R)-16-benzyl-1-(4-chloro-2-(4-(1-methyl-2-(pyrrolidin-1-ylmethyl)-1H-imidazol-5-yl)phenoxy)benzyl)-8-(4-chlorobenzyl)-13-(2-(dimethylamino)ethyl)-5-(methoxymethyl)-2,7,14-trimethyl-1,4,7,11,14-pentaazacyclooctadecane-3,6,10,15,18-pentaone] | 100.60 | 32.6
COC[C@@H]1NC(=O)[C@H](CCCNC(=O)OC(C)(C)C)N(Cc2ccc(Cl)cc2Oc2ccc(-c3cnc(CN4CCCC4)n3C)cc2)C(=O)C[C@@H](Cc2ccccc2)C(=O)N(C)[C@H]2CCCC[C@@H]2NC(=O)C[C@H](Cc2ccc(Cl)cc2)N(C)C1=O [Compound 191, tert-butyl (3-((4S,7S,10S,14R,16aS,20aS)-14-benzyl-11-(4-chloro-2-(4-(1-methyl-2-(pyrrolidin-1-ylmethyl)-1H-imidazol-5-yl)phenoxy)benzyl)-4-(4-chlorobenzyl)-7-(methoxymethyl)-5,16-dimethyl-2,6,9,12,15-pentaoxodocosahydrobenzo[l][1,4,7,11,14]pentaazacyclooctadecin-10-yl)propyl)carbamate] | 94.20 | 2.1
COC[C@@H]1NC(=O)[C@H](CCCN)N(Cc2ccc(Cl)cc2Oc2ccc(-c3cnc(CN(C)C)n3C)cc2)C(=O)C[C@@H](Cc2ccccc2)C(=O)N(C)[C@@H](C)CNC(=O)C[C@H](Cc2ccc(Cl)cc2)N(C)C1=O [Compound 192, (2S,5S,8S,13S,16R)-2-(3-aminopropyl)-16-benzyl-1-(4-chloro-2-(4-(2-((dimethylamino)methyl)-1-methyl-1H-imidazol-5-yl)phenoxy)benzyl)-8-(4-chlorobenzyl)-5-(methoxymethyl)-7,13,14-trimethyl-1,4,7,11,14-pentaazacyclooctadecane-3,6,10,15,18-pentaone] | 97.97 | 107
C[C@@H]1CC(=O)N(Cc2ccc(Cl)cc2Oc2ccc(-c3cnc(CN(C)C)n3C)cc2)[C@@H](C)C(=O)N[C@@H](CO)C(=O)N(C)[C@@H](Cc2ccc(Cl)cc2)CC(=O)NC[C@H](C)N(C)C1=O [Compound 193, (2S,5S,8S,13S,16R)-1-(4-chloro-2-(4-(2-((dimethylamino)methyl)-1-methyl-1H-imidazol-5-yl)phenoxy)benzyl)-8-(4-chlorobenzyl)-5-(hydroxymethyl)-2,7,13,14,16-pentamethyl-1,4,7,11,14-pentaazacyclooctadecane-3,6,10,15,18-pentaone] | 84.54 | 6.1
C[C@@H]1C(=O)N[C@@H](CO)C(=O)N(C)[C@@H](Cc2ccc(Cl)cc2)CC(=O)N[C@H]2CCCC[C@@H]2N(C)C(=O)[C@H](Cc2ccccc2)CC(=O)N1Cc1ccc(Cl)cc1Oc1ccc(-c2cnc(CN(C)C)n2C)cc1 [Compound 194, (4S,7S,10R,14R,16aS,20aS)-14-benzyl-11-(4-chloro-2-(4-(2-((dimethylamino)methyl)-1-methyl-1H-imidazol-5-yl)phenoxy)benzyl)-4-(4-chlorobenzyl)-7-(hydroxymethyl)-5,10,16-trimethylhexadecahydrobenzo[l][1,4,7,11,14]pentaazacyclooctadecine-2,6,9,12,15(3H)-pentaone] | 96.92 | 5.5
COC[C@@H]1NC(=O)[C@H](C)N(Cc2ccc(Cl)cc2Oc2ccc(-c3cnc(CN(C)C)n3C)cc2)C(=O)CCC(=O)N(C)[C@@H](C)CNC(=O)C[C@H](Cc2ccc(Cl)cc2)N(C)C1=O [Compound 195, (2S,5S,8S,13S)-1-(4-chloro-2-(4-(2-((dimethylamino)methyl)-1-methyl-1H-imidazol-5-yl)phenoxy)benzyl)-8-(4-chlorobenzyl)-5-(methoxymethyl)-2,7,13,14-tetramethyl-1,4,7,11,14-pentaazacyclooctadecane-3,6,10,15,18-pentaone] | 100.43 | 73.4
COC[C@@H]1NC(=O)[C@H](C)N(Cc2c(Oc3ccc(-c4cnc(CN(C)C)n4C)cc3)cccc2OC(F)F)C(=O)CCC(=O)N(C)[C@H]2CCCC[C@@H]2NC(=O)C[C@H](Cc2ccc(Cl)cc2)N(C)C1=O [Compound 196, (4S,7S,10S,16aS,20aS)-4-(4-chlorobenzyl)-11-(2-(difluoromethoxy)-6-(4-(2-((dimethylamino)methyl)-1-methyl-1H-imidazol-5-yl)phenoxy)benzyl)-7-(methoxymethyl)-5,10,16-trimethylhexadecahydrobenzo[l][1,4,7,11,14]pentaazacyclooctadecine-2,6,9,12,15(3H)-pentaone] | 97.92 | 3
COC[C@@H]1NC(=O)[C@H](C)N(Cc2ccc(Cl)cc2Oc2ccc(-c3cnc(OC)n3C)cc2)C(=O)C[C@@H](Cc2ccccc2)C(=O)N(C)[C@@H](C)CNC(=O)C[C@H](Cc2ccc(Cl)cc2)N(C)C1=O [Compound 197, (2S,5S,8S,13S,16R)-16-benzyl-1-(4-chloro-2-(4-(2-methoxy-1-methyl-1H-imidazol-5-yl)phenoxy)benzyl)-8-(4-chlorobenzyl)-5-(methoxymethyl)-2,7,13,14-tetramethyl-1,4,7,11,14-pentaazacyclooctadecane-3,6,10,15,18-pentaone] | 72.51 | 17.4
COC[C@@H]1NC(=O)[C@H](C)N(Cc2ccc(Cl)cc2Oc2ccc(-c3cnc(CN4CCCC4)n3C)cc2)C(=O)C[C@@H](Cc2ccccc2)C(=O)N(C)[C@@H](C)[C@H](C)NC(=O)C[C@H](Cc2ccc(Cl)cc2)N(C)C1=O [Compound 198, (2S,5S,8S,12S,13S,16R)-16-benzyl-1-(4-chloro-2-(4-(1-methyl-2-(pyrrolidin-1-ylmethyl)-1H-imidazol-5-yl)phenoxy)benzyl)-8-(4-chlorobenzyl)-5-(methoxymethyl)-2,7,12,13,14-pentamethyl-1,4,7,11,14-pentaazacyclooctadecane-3,6,10,15,18-pentaone] | 98.27 | 0.6
COC[C@@H]1NC(=O)[C@H](C)N(Cc2ccc(F)cc2Oc2ccc(-c3cnc(CN(C)C)n3C)cc2)C(=O)C[C@@H](Cc2ccccc2)C(=O)N(C)[C@@H](C)CNC(=O)C[C@H](Cc2ccc(Cl)cc2)N(C)C1=O [Compound 199, (2S,5S,8S,13S,16R)-16-benzyl-8-(4-chlorobenzyl)-1-(2-(4-(2-((dimethylamino)methyl)-1-methyl-1H-imidazol-5-yl)phenoxy)-4-fluorobenzyl)-5-(methoxymethyl)-2,7,13,14-tetramethyl-1,4,7,11,14-pentaazacyclooctadecane-3,6,10,15,18-pentaone] | 100.29 | 24.8
